Source: US11952364B2, “TRK inhibitors useful as anticancer drugs” (TYLIGAND BIOSCIENCE (SHANGHAI) LIMITED, priority 2018, dated 2024)
Converted amounts (≈) assume the structure as drawn. Read-outs that look alike come from different tables or passages of the source.

Experiments:
Ba/F3 ETV6-NTRK2 cells = experiment: Proliferation of Ba/F3 ETV6-NTRK2 cells (CellTiter-Glo); type: cell-based; conditions: Mus musculus, BaF3; Table 2; 72 hours
Source text: Ba/F3 ETV6-NTRK2 cell is a stable transgenic cell line constructed by KYinno Biotechnology Co., Ltd. on mouse primary B cell Ba/F3 wherein NTRK2 is highly expressed and fused with ETV6 to form ETV6-NTRK2. • [Test method]: Promega's CellTiter-Glo® Luminescent Cell Viability Assay kit was used to evaluate the inhibitory activity of the compounds on the proliferation of Ba/F3 ETV6-NTRK2C cells. • [Instrument]: Spectramax M3 multifunctional microplate reader from Molecular Devices. • [Test materials]: Ba/F3 ETV6-NTRK2 cell line (constructed by KYinno Biotechnology Co., Ltd. (Beijing)), 96-well transparent flat-bottomed black-walled cell culture plate (Corning, cat #3603), RPMI-1640 media (GE, cat #SH30027.01), fetal bovine serum FBS (Thermo Fisher, cat #10099-141), CellTiter-Glo® Luminescent Cell Viability Assay kit (Promega, cat #G7572), PBS (Solarbio, cat #P1020), DMSO (Sigma, cat #D2650). • [Experimental procedure]: When resuscitating Ba/F3 ETV6-NTRK2 cells, the freezing tube was quickly shaken in a 37° C. water bath to melt within 1 minute. The thawed cell suspension was mixed uniformly with RPMI1640 medium containing 10% FBS, centrifuged at 1000 rpm for 5 minutes, and the supernatant discarded. 5 mL of complete medium (RPMI1640 medium with 10% FBS) was taken to resuspend the cell pellets, charged into a cell culture flask with a bottom area of 25 cm^2, and incubated in a cell incubator at 37° C., 95% humidity and 5% CO2. Cells were allowed to passage when the number of cells reached about 10^6 cells/mL. For cell passage, the old cell suspension was directly pipetted evenly, 1/5 of the cell suspension was kept, 4 mL of new complete medium was added, and after pipetting evenly, the cell flask was placed in the cell incubator for further culturing. Cell plating was performed when the number of cells reached about 10^6 cells/mL again. For cell plating, 1/5 of the cell suspension was kept for further culturing as in the cell passage method, and the remaining 4/5 of the cell suspension was placed in a 15 mL centrifuge tube, detected for cell viability by Trypan blue exclusion method to ensure that cell viability was above 90%. A cell suspension with a density of 5.56×10^4 viable cells/mL was prepared with complete medium, and 90 μL of such cell suspension was added to a 96-well cell culture plate to obtain a cell density of 5000 viable cells/mL in the cell culture plate. A control group containing no cells, no compound and only complete medium (i.e, culture medium control) and a control group containing no compound but containing cells (i.e, cell control) were set. The cell plate was placed in a cell incubator overnight. The 10 mM compound stock solution in DMSO was first serially diluted with DMSO at a dilution factor of 3.16 times, to obtain 9 concentrations, and the 10th concentration was set as DMSO control without compound. Then, PBS was used to dilute the DMSO solutions of compounds of different concentrations, at a dilution factor of 100 times, so that the DMSO concentration in the compound solution of each concentration was 1%. Finally, 10 μL of each of the above solutions was added to the corresponding cell culture plate, so that the initial compound concentration was 10 μM, with the remaining concentrations being successively diluted at a dilution factor of 3.16 times, and the DMSO content in the cell culture plate was 0.1%. The cell plate was placed in a cell incubator and cultured for 72 hours. For endpoint detection, the CellTiter-Glo reagent was melted, and the cell plate was moved to room temperature to equilibrate for 30 minutes, added with 100 μL of CellTiter-Glo for each well, and shaken on an orbital shaker for 5 minutes to fully lyse the cells. The plate was kept at room temperature for 20 minutes to stabilize the luminescence signal, and the luminescence value of each well was scanned with a multi-functional microplate reader at full wavelength. • [Test sample]

[1] = Solubility in simulated fluids and PBS; type: physicochemical; conditions: for solubility: thermodynamic from solid, 25° C.
Source text: According to the well-known standard methods conventional in the art for solubility determination, for example those described in Kems, Edward H. and Di Li (2008). Drug-like Properties: Concepts, Structure Design and Methods: from ADME to Toxicity Optimization. San Diego: Academic Press), the solubility properties of the compounds of the present disclosure were investigated as follows, in testing systems of FaSSGF (pH 1.6) (Biorelevant, Fasted State Simulated gastric fluids), FeSSIF (pH 5.8) (Biorelevant, Fed State Simulated Intestinal Fluid), FaSSIF (pH 6.5) (Biorelevant, Fasted State Simulated Intestinal Fluid) and PBS buffer (Hyclone, Cat No. SH30256.01B).
Accurately weighed ˜1 mg of test compound dry powder was charged into a glass bottle, and added an appropriate volume of each of the above test system solutions, to prepare a 4 mg/mL working solution. The sample bottle was placed on a shaker at room temperature (25° C.) and shook at 1000 rpm for 1 hour, then stood overnight for equilibrium. All samples were centrifuged at 12000 rpm at 25° C. for 10 minutes. Solutions of different concentrations for each compound were prepared in DMSO as the standard solutions. 580 μL of 20% (v/v) acetonitrile aqueous solution (containing 40 ng/mL tolbutamide as internal standard) was added into each well of three microplates, and mixed uniformly. 20 μL of 4 mg/mL working solution or standard solution was added to the wells of the first microplate and mixed uniformly, from which 20 μL was taken and added to the corresponding well of the second microplate, and mixed uniformly, from which again 20 μL was taken from each well and added to the corresponding wells of the third microplate, and mixed uniformly. Mass spectrometry was adopted to analyze the samples (LC-MS/MS-014, API4000), a standard curve was developed based on the concentrations of the standard solutions, and the solubility of the test compound was calculated.

[2] = PBS buffer, aqueous buffer, PBS pH 7.4, read-out: Solubility PBS (pH 7.4)
[3] = fassgf or other biorelevant, FaSSGF pH 1.6, read-out: Solubility FaSSGF (pH 1.6)
[4] = FaSSIF pH 6.5, read-out: Solubility FaSSIF (pH 6.5)
[5] = FeSSIF pH 5.8, read-out: Solubility FeSSEF (pH 5.8)

CCc1ccc(C(=O)Nc2ccc(Oc3cc4cnn(C)c4cc3-c3cn[nH]c3)c(F)c2)c(=O)n1-c1ccc(F)cc1 [Example 5, N-(3-fluoro-4-(1-methyl-6-(1H-pyrazol-4-yl)-1H-indazol-5-yloxy)phenyl)-1-(4-fluorophenyl)-6-ethyl-2-oxo-1,2-dihydropyridine-3-carboxamide]
IC50 (Ba/F3 ETV6-NTRK2 cells): 128 nM

Cn1ncc2cc(Oc3ccc(NC(=O)c4ccc(C(F)(F)F)n(-c5ccc(F)cc5)c4=O)cc3F)c(-c3cn[nH]c3)cc21 [Example 1, N-(3-fluoro-4-(1-methyl-6-(1H-pyrazol-4-yl)-1H-indazol-5-yloxy)phenyl)-1-(4-fluorophenyl)-6-trifluoromethyl-2-oxo-1,2-dihydmpyridine-3-carboxamide monomethanesulfonate]
IC50 (Ba/F3 ETV6-NTRK2 cells): 428 nM

CC(C)c1ccc(C(=O)Nc2ccc(Oc3cc4cnn(C)c4cc3-c3cn[nH]c3)c(F)c2)c(=O)n1-c1ccc(F)cc1 [Example 6, N-(3-fluoro-4-(1-methyl-6-(1H-pyrazol-4-yl)-1H-indazol-5-yloxy)phenyl)-1-(4-fluorophenyl)-6-isopropyl-2-oxo-1,2-dihydropyridine-3-carboxamide]
IC50 (Ba/F3 ETV6-NTRK2 cells): 209 nM

O=C(Nc1cnn2ccc(N3CCC[C@@H]3c3cc(F)ccc3F)nc12)N1CC[C@H](O)C1 [LOXO-101, Larotrectinib, reference compound]
IC50 (Ba/F3 ETV6-NTRK2 cells): 69 nM

Cc1ccc(C(=O)Nc2ccc(Oc3cc4cnn(C(C)C)c4cc3-c3cn[nH]c3)c(F)c2)c(=O)n1-c1ccc(F)cc1 [Example 4, N-(3-fluoro-4-(1-isopropyl-6-(1H-pyrazol-4-yl)-1H-indazol-5-yloxy)phenyl)-1-(4-fluorophenyl)-6-methyl-2-oxo-1,2-dihydmpyridine-3-carboxamide]
IC50 (Ba/F3 ETV6-NTRK2 cells): 876 nM

Cn1ncc2cc(Oc3ccc(NC(=O)c4ccc(C5CC5)n(-c5ccc(F)cc5)c4=O)cc3F)c(-c3cn[nH]c3)cc21 [Example 2, N-(3-fluoro-4-(1-methyl-6-(1H-pyrazol-4-yl)-1H-indazol-5-yloxy)phenyl)-1-(4-fluorophenyl)-6-cyclopropyl-2-oxo-1,2-dihydmpyridine-3-carboxamide]
IC50 (Ba/F3 ETV6-NTRK2 cells): 269 nM

Cc1ccc(C(=O)Nc2ccc(Oc3cc4cnn(C)c4cc3-c3cn[nH]c3)c(F)c2)c(=O)n1-c1ccc(F)cc1 [Merestinib, reference compound]
IC50 (Ba/F3 ETV6-NTRK2 cells): 211 nM | solubility [1, 2]: 0.02 µg/mL (≈ 0.0362 µM) | solubility [1, 3]: 19.3 µg/mL (≈ 34.9 µM) | solubility [1, 4]: 3.07 µg/mL (≈ 5.56 µM) | solubility [1, 5]: 33.7 µg/mL (≈ 61 µM)

COc1ccc(C(=O)Nc2ccc(Oc3cc4cnn(C)c4cc3-c3cn[nH]c3)c(F)c2)c(=O)n1-c1ccc(F)cc1 [Example 12, N-(3-fluoro-4-(1-methyl-6-(1H-pyrazol-4-yl)-1H-indazol-5-yloxy)phenyl)-1-(4-fluorophenyl)-6-methoxy-2-oxo-1,2-dihydropyridine-3-carboxamide]
solubility [1, 2]: 0.01 µg/mL (≈ 0.0176 µM) | solubility [1, 3]: 27.7 µg/mL (≈ 48.7 µM) | solubility compared with Merestinib ([1]; statement in words): significantly improved solubility as compared with Merestinib | solubility [1, 4]: 5.47 µg/mL (≈ 9.62 µM) | solubility [1, 5]: 53.3 µg/mL (≈ 93.7 µM)

CCn1ncc2cc(Oc3ccc(NC(=O)c4ccc(C)n(-c5ccc(F)cc5)c4=O)cc3F)c(-c3cn[nH]c3)cc21 [Example 3, N-(3-fluoro-4-(1-ethyl-6-(1H-pyrazol-4-yl)-1H-indazol-5-yloxy)phenyl)-1-(4-fluorophenyl)-6-methyl-2-oxo-1,2-dihydmpyridine-3-carboxamide]
IC50 (Ba/F3 ETV6-NTRK2 cells): 341 nM
